Legend:
Rat [1] = assay: concentration in kidney after dosing; details: 6 h; dosed: Potassium Perfluorobutane Sulfonate; 20 mg/kg; oral; Female; Harlan Sprague Dawley
Rat [2] = assay: concentration in plasma after dosing; details: 1.5 h; dosed: Potassium Perfluorobutane Sulfonate; 4 mg/kg; oral; Male; Harlan Sprague Dawley
Rat [3] = assay: concentration in plasma after dosing; details: dosed: Potassium Perfluorobutane Sulfonate, 4 mg/kg, iv, Male, F344
Rat [4] = assay: concentration in liver after dosing; details: 0.5 h; dosed: Potassium Perfluorobutane Sulfonate; 20 mg/kg; oral; Male; Harlan Sprague Dawley
Rat [5] = assay: concentration in liver after dosing; details: 12 h; dosed: Potassium Perfluorobutane Sulfonate; 20 mg/kg; oral; Male; Harlan Sprague Dawley
Rat [6] = assay: concentration in plasma after dosing; details: dosed: Potassium Perfluorobutane Sulfonate, 4 mg/kg, oral, Male, Harlan Sprague Dawley
Rat [7] = assay: concentration in plasma after dosing; details: dosed: Potassium Perfluorobutane Sulfonate, 4 mg/kg, oral, Male, Harlan Sprague Dawley; remark: listed apart in the source
Rat [8] = assay: concentration in kidney after dosing; details: 6 h; dosed: Potassium Perfluorobutane Sulfonate; 20 mg/kg; oral; Female; Harlan Sprague Dawley; remark: listed apart in the source
Rat [9] = assay: concentration in kidney after dosing; details: 1 h; dosed: Potassium Perfluorobutane Sulfonate; 20 mg/kg; oral; Male; Harlan Sprague Dawley
Rat [10] = assay: concentration in plasma after dosing; details: 5 min; dosed: Nitrite; 20 mg/kg; iv; Male; F344
Rat [11] = assay: concentration in plasma after dosing; details: 0.5 h; dosed: Nitrite; 40 mg/kg; oral; Female; F344
Rat [12] = assay: concentration in plasma after dosing; details: 0.5 h; dosed: Nitrite; 80 mg/kg; oral; Female; F344
Rat [13] = assay: concentration in plasma after dosing; details: dosed: Nitrite, 80 mg/kg, oral, Female, F344
Mouse [14] = assay: concentration in plasma after dosing; details: 3 h; dosed: 2-Hydroxy-4-methoxybenzophenone; 250 mg/kg; oral; Male; B6C3F1
Mouse [15] = assay: concentration in plasma after dosing; details: 0.25 h; dosed: 2-Hydroxy-4-methoxybenzophenone; 50 mg/kg; iv; Female; B6C3F1
Mouse [16] = assay: concentration in plasma after dosing; details: 3 h; dosed: 2-Hydroxy-4-methoxybenzophenone; 50 mg/kg; iv; Male; B6C3F1
Mouse [17] = assay: concentration in plasma after dosing; details: 2 h; dosed: 2-Hydroxy-4-methoxybenzophenone; 50 mg/kg; iv; Female; B6C3F1
Mouse [18] = assay: concentration in plasma after dosing; details: 3 h; dosed: 2-Hydroxy-4-methoxybenzophenone; 50 mg/kg; iv; Female; B6C3F1
Mouse [19] = assay: concentration in plasma after dosing; details: 3 h; dosed: 2-Hydroxy-4-methoxybenzophenone; 250 mg/kg; oral; Male; B6C3F1; remark: listed apart in the source
Rat [20] = assay: concentration in plasma after dosing; details: dosed: 2-Hydroxy-4-methoxybenzophenone, 500 mg/kg, oral, Female, F344
Rat [21] = assay: concentration in plasma after dosing; details: 0.25 h; dosed: 2-Hydroxy-4-methoxybenzophenone; 500 mg/kg; oral; Male; F344
Mouse [22] = assay: concentration in plasma after dosing; details: 2 h; dosed: 2-Hydroxy-4-methoxybenzophenone; 500 mg/kg; oral; Male; B6C3F1
Mouse [23] = assay: concentration in plasma after dosing; details: 10 min; dosed: 2-Hydroxy-4-methoxybenzophenone; 50 mg/kg; iv; Male; B6C3F1
Rat [24] = assay: concentration in plasma after dosing; details: dosed: 2-Hydroxy-4-methoxybenzophenone, 100 mg/kg, oral, Male, F344
Rat [25] = assay: concentration in plasma after dosing; details: dosed: 2-Hydroxy-4-methoxybenzophenone, 8 mg/kg, iv, Female, F344
rat [26] = assay: amount in expired air after dosing (umol); details: dosed: methanol, 100 mg/kg, iv, male, CDF(F344)/CrlBR
Rat [27] = assay: concentration in plasma after dosing; details: 192 h; dosed: 678-39-7; 12 mg/kg; iv; Male; F344
Rat [28] = assay: concentration in liver after dosing; details: 3 h; dosed: Perfluorooctanoic acid; 80 mg/kg; oral; Female; Harlan Sprague Dawley
Rat [29] = assay: concentration in plasma after dosing; details: 3 h; dosed: 678-39-7; 12 mg/kg; iv; Male; F344
Rat [30] = assay: concentration in liver after dosing; details: 24 h; dosed: Perfluorooctanoic acid; 12 mg/kg; oral; Male; Harlan Sprague Dawley
Rat [31] = assay: concentration in kidney after dosing; details: 24 h; dosed: Perfluorooctanoic acid; 12 mg/kg; oral; Male; Harlan Sprague Dawley
Rat [32] = assay: concentration in liver after dosing; details: 0.5 h; dosed: Fluorotelomer alcohol 8+2; 80 mg/kg; oral; Female; Harlan Sprague Dawley
rat [33] = details: dosed: benzo[a]pyrene, 1 mg/kg, iv, male, Sprague Dawley

For `O=S(=O)([O-])C(F)(F)C(F)(F)C(F)(F)C(F)(F)F.[K+]` [Potassium Perfluorobutane Sulfonate], the concentration in kidney (Rat [1]) was 587 ng/g, the concentration in plasma (Rat [2]) was 13500 ng/mL and the concentration in plasma (Rat [3]; 0.25 h) was 27200 ng/mL. For the same compound, the concentration in plasma (Rat [3]; 6 h) was 4170 ng/mL, the concentration in liver (Rat [4]) was 62000 ng/g and the concentration in liver (Rat [5]) was 10100 ng/g. The concentration in plasma (Rat [6]; 5 min) was 398 ng/mL, the concentration in plasma (Rat [6]; 3 h) was 11700 ng/mL and the concentration in plasma (Rat [7]; 0.5 h) was 7030 ng/mL. It also gave a concentration in plasma (Rat [7]; 9 h) of 5080 ng/mL, a concentration in kidney (Rat [8]) of 3360 ng/g and a concentration in kidney (Rat [9]) of 22700 ng/g.

For `O=N[O-]` [Nitrite], the concentration in plasma (Rat [10]) was 8200 ng/mL, the concentration in plasma (Rat [11]) was 6500 ng/mL and the concentration in plasma (Rat [12]) was 30200 ng/mL. The concentration in plasma (Rat [13]; 1 h) was 8100 ng/mL and the concentration in plasma (Rat [13]; 2 h) was 6800 ng/mL.

`COc1ccc(C(=O)c2ccccc2)c(O)c1` [2-Hydroxy-4-methoxybenzophenone] gave a concentration in plasma (Mouse [14]) of 45.1 ng/mL, a concentration in plasma (Mouse [15]) of 4680 ng/mL and a concentration in plasma (Mouse [16]) of 175 ng/mL. For the same compound, the concentration in plasma (Mouse [17]) was 317 ng/mL, the concentration in plasma (Mouse [18]) was 149 ng/mL and the concentration in plasma (Mouse [19]) was 37.2 ng/mL. It also gave a concentration in plasma (Rat [20]; 10 min) of 52.4 ng/mL, a concentration in plasma (Rat [20]; 10 h) of 27.5 ng/mL and a concentration in plasma (Rat [21]) of 902 ng/mL. The concentration in plasma (Mouse [22]) was 95.6 ng/mL, the concentration in plasma (Mouse [23]) was 11900 ng/mL and the concentration in plasma (Rat [24]; 10 min) was 17.3 ng/mL. For the same compound, the concentration in plasma (Rat [24]; 3 h) was 21.2 ng/mL, the concentration in plasma (Rat [25]; 10 min) was 3030 ng/mL and the concentration in plasma (Rat [25]; 2 h) was 78.6 ng/mL.

For `CO` [methanol], the “amount in expired air” value (rat [26]; 0.5482 h) was 3.95, the “amount in expired air” value (rat [26]; 1.003 h) was 4.75 and the “amount in expired air” value (rat [26]; 1.458 h) was 5.56. For the same compound, the “amount in expired air” value (rat [26]; 1.963 h) was 7.78, the “amount in expired air” value (rat [26]; 2.999 h) was 10.5 and the “amount in expired air” value (rat [26]; 4.439 h) was 14.9. The “amount in expired air” value (rat [26]; 5.98 h) was 17.6, the “amount in expired air” value (rat [26]; 8.026 h) was 18.8 and the “amount in expired air” value (rat [26]; 10.01 h) was 19.4. For the same compound, the “amount in expired air” value (rat [26]; 12.02 h) was 20.1 and the “amount in expired air” value (rat [26]; 15.07 h) was 19.5.

In the case of `O=C(O)C(F)(F)C(F)(F)C(F)(F)C(F)(F)C(F)(F)C(F)(F)C(F)(F)F` [Perfluorooctanoic acid], the concentration in plasma (Rat [27]) is reported as 307 ng/mL, the concentration in liver (Rat [28]) is reported as 162000 ng/g and the concentration in plasma (Rat [29]) is reported as 497 ng/mL. The concentration in liver (Rat [30]) was 60800 ng/g, the concentration in kidney (Rat [31]) was 29700 ng/g and the concentration in liver (Rat [32]) was 470 ng/g.

With `c1ccc2c(c1)cc1ccc3cccc4ccc2c1c34` [benzo[a]pyrene] the “amount in bile after dosing” value (rat [33]; 1.003 h) was 7.16 ng, the “amount in bile after dosing” value (rat [33]; 3.009 h) was 20.1 ng and the “amount in bile after dosing” value (rat [33]; 5.994 h) was 22.9 ng. For the same compound, the “amount in bile after dosing” value (rat [33]; 24 h) was 26.4 ng.
